In data set [1] the test system is rats given streptozotocin. The data set is described as follows: Relief of onset of streptozotocin-induced diabetes. The conditions noted are these: male SD rats, streptozotocin 50 mg/kg i.v.; 10 mg/kg/day oral, 14 days from 24 hours after; Mean ± SE. Format: in vivo, rat. The method, then: Eighteen male Wistar rats weighing about 200 g were divided into 3 groups at random. To the animals of 2 groups, 45 mg/kg of streptozotocin was intravenously administered. One of these groups was regarded as a control group, while the other was regarded as the Compound-6 administration group. To the remaining 1 group which was regarded as the normal control group, a 1/10 M citrate buffer (pH 3.5) […] was intravenously administered. Immediately after the administration of streptozotocin, a suspension of Compound-6 in acacia was orally administered once a day continuously for 10 days in a dose of 20 mg/kg/day. To other groups, an acacia solution alone was administered. After fasting for 6 hours after the final administration, blood was collected from the heart of each animal and the blood glucose level and the blood insulin level were measured. As the data given in Table 7a show, the oral administration of Compound-6 inhibited an increase in the blood glucose level and a decrease in the blood insulin level.
Eighteen male SD rats weighing about 250 g were divided into 3 groups at random. […] To the normal control group and the streptozotocin control group, the acacia solution alone was administered orally. After fasting for 6 hours after the final administration, blood was collected from the heart of each animal and the blood glucose level and the blood insulin level were measured. As the data given in Table 7b show, the oral administration of Compound-5 inhibited an increase in the blood glucose level and a decrease in the blood insulin level.

The test system of another data set is male Wistar rats. Description: Oral administration of Compound-5 to rats: toxicity and Compound-1 in the blood. As for the experimental part: Male Wistar rats (n=4) weighing about 200 g were employed and the concentration of Compound-1 contained in the serum was expressed in mean±SE (FIG. 9).
In FIG. 9, open circles show a case wherein Compound-5 was solubilized with HCO-60 and orally administered in a dose of 2 mg/kg.
Solid circles show a case wherein Compound-5 was suspended in an acacia solution and orally administered in a dose of 20 mg/kg. Per part of the serum collected with the passage of time, ethanol containing 1% of acetic acid was added and the mixture was allowed to stand in the dark at room temperature for 7 days. Then Compound-1 was determined by high performance liquid chromatography.
Open squares show a case wherein Compound-5 was suspended in an acacia solution and orally administered. Then the blood was collected at definite points and Compound-1 was determined by high performance liquid chromatography immediately thereafter. […] Separately, Compound-5 suspended in an acacia solution was orally administered to rats having been cannulated into the portal vein. Then the portal blood was collected with the passage of time and Compound-1 was determined.

The subject of the next data set is male ICR and ddY mice. The data set is described as follows: Serum total cholesterol lowering effect in mice. Format: in vivo, mouse. As to conditions: 8 days; for Serum total cholesterol, % change: vs control; for Serum total cholesterol: Mean±SE. The source says:
Effect of serum cholesterol lowering agents varies among animals. Namely, some agents which are effective on a certain animal exert […] on others. For example, compactin, which is an HMG CoA reductase inhibitor, cannot lower the serum total cholesterol level when administered to rodents such as rat or mouse. This is because even though HMG CoA reductase is inhibited in the rodent liver, the enzyme is biosynthesized in an amount in excess of that for compensating the inhibition so that the inhibitory effect is negated. Accordingly, it is favorable to calibrate the effect of lowering serum total cholesterol level in as many animals as possible. Concerning the effect of the compounds of the present invention on the serum total cholesterol level, an assay was made with the use of mice. After adding these compounds to a standard powdery feed for rat and mouse, the resultant mixtures were molded into pellets and given for 8 days to male ICR and ddY mice aged 5 weeks. In the afternoon of the day 8, the blood of each animal was collected from the heart and the total cholesterol in the serum was determined. The doses were determined as the maximum dose, in which body weight gain was not suppressed after orally administering for 1 week, and as the ¼ dose thereof.
Each value is represented in Mean±SE (n=10). a) In the case of Compound-1, the control group consisted of 23 animals while the 0.04% and 0.01% groups each consisted of 12 animals.

Data set [2] relates to hereditary obese diabetic mice ob/ob and db/db. The conditions noted are these: oral; cited from earlier work.
A further data set has as its system patients. The conditions noted are these: at the normal dose; cited from earlier work.

Molecules are shown by their SMILES.

As to `CC(=O)Oc1c(Cl)c(C)c(C=O)c(O)c1CC=C(C)C=CC1(C)C(C)CCC(=O)C1C` (stereo not drawn) [Compound-5, acetylASC], in data set [1], the Blood glucose was 237.2 ± 26.31 mg/dL and the “Serum IRI” value amounted to 15.5 ± 2.16 mU/ml. Also, the “time within which all of the rats died following administration” value in the data set with male Wistar rats (2 mg/kg oral, solubilized with HCO-60, n=4) was not above 1 h. The lethality result with male Wistar rats (rat, suspended in a 2% acacia solution, 200 mg/kg) is “not killed”. Moreover, the “free Compound-1 in the blood after administration of Compound-5” value in the data set on male Wistar rats (suspended in acacia solution, oral, determined immediately by HPLC) is on record as “no free Compound-1 was detected”. For the same molecule, in the data set on male ICR and ddY mice (0.01% in feed), the “Serum total cholesterol, % change” value is reported as −13% and the Serum total cholesterol is 132 ± 6.1 mg/dL. In the data set with male ICR and ddY mice (0.04% in feed), the “Serum total cholesterol, % change” value is reported as −27% and the Serum total cholesterol amounted to 117 ± 3.3 mg/dL.

Turning to `Cc1cc2c(cc1C1(c3ccc(C(=O)O)cn3)CC1)C(C)(C)CCC2(C)C` [LG100268], the “blood glucose levels, serum neutral fat levels and serum insulin levels” value in data set [2] is reported as “drastically lower”.

Regarding `C=C(c1ccc(C(=O)O)cc1)c1cc2c(cc1C)C(C)(C)CCC2(C)C` [LGD1069], in data set [2], the “blood glucose levels, serum neutral fat levels and serum insulin levels” value is reported as “drastically lower”.

Take `Cc1c(C)c2c(c(C)c1O)CCC(C)(COc1ccc(CC3SC(=O)NC3=O)cc1)O2` (stereo not drawn) [troglitazone]: the patients with hepatopathy result in the data set on patients is recorded as “about 2%”.

These data come from patent publication US6605639B1, “Ligands of nuclear receptor” (Nuclear Receptor Research, Ltd., priority 1998, dated 2003).
